Reference: patent US10941152B2, “Pyrazole compounds as modulators of FSHR and uses thereof” (TOCOPHERX, INC., priority 2014, dated 2021)

Experiments:
[1] = biological target: T1, follicle-stimulating hormone (FSH) receptor (Rattus norvegicus, UniProt P20395); assay: Rat granulosa EC50 FSH (Assay B); type: cell-based
T1 construct: endogenous in cells; host or cells: rat granulosa cells
T1 sequence (P20395 18-692): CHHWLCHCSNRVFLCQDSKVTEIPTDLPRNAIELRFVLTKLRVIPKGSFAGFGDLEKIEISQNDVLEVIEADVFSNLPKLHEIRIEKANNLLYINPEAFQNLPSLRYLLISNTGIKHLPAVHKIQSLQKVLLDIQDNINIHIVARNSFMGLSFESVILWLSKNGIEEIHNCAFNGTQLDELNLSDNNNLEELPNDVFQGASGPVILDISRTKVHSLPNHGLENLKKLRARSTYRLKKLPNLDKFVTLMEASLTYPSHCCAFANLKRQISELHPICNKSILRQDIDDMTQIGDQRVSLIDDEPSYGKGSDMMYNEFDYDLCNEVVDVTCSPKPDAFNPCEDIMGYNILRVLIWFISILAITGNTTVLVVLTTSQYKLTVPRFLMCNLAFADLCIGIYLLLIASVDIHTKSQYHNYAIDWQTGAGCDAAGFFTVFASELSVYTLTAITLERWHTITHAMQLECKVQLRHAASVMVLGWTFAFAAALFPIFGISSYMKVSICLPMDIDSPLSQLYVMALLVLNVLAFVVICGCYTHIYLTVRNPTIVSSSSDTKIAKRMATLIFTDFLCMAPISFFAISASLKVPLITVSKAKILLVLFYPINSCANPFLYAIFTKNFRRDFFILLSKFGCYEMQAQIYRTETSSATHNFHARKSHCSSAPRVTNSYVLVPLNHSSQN
Protocol: Example 25. Rat granulosa EC50 FSH (Assay B)
The assay was performed pursuant to the teaching of Yanofsky et al. (2006) Allosteric activation of the follicle-stimulating hormone (FSH) receptor by selective, nonpeptide agonists (JBC 281(19): 13226-13233, which is incorporated by reference in the disclosure of the invention).

FSHR = biological target: T2, FSHR (Homo sapiens, UniProt P23945); assay: EC50 of cyclic AMP production in CHO FSHR cells + EC20 FSH (Assay A); type: cell-based; settings: cyclic AMP production in CHO FSHR cells + EC20 FSH (0.265 pM), HTRF
T2 construct: expressed in transfected cells; host or cells: CHO (Cho-FSHR-LUC-1-1-43)
T2 sequence (P23945 18-695): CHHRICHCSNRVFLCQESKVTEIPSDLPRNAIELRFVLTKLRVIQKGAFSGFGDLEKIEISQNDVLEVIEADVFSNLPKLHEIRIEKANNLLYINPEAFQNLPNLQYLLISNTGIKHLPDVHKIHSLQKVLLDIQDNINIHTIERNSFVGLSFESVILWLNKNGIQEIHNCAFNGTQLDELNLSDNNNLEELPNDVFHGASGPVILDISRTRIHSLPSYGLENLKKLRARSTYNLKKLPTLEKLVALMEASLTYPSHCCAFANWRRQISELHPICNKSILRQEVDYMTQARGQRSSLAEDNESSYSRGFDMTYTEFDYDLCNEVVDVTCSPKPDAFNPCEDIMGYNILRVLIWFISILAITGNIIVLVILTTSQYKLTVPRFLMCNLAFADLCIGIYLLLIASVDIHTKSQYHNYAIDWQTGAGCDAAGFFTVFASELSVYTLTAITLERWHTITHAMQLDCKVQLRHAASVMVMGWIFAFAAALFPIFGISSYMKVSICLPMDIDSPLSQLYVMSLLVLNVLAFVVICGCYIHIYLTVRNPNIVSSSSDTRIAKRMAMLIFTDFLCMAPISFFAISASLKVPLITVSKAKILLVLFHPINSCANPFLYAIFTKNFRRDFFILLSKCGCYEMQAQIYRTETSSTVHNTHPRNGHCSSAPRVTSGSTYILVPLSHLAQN
Method in brief: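 CHO cells expressing FSHR, stimulated 1 h at 37° C with compound plus EC20 FSH (0.265 pM final) and 200 μM IBMX. cAMP measured by HTRF (665/620 nm ratio) after 1 h at room temperature; effect expressed relative to maximum response of FSH standard.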

SMILES	EC50 [1] [nM]	EC50 (FSHR) [nM]
COc1cc2c(cc1-c1nn(C)cc1C#N)-c1c(c(C(=O)N3CCOCC3(C)C)nn1-c1cc(F)cc(F)c1)CO2 [Compound 150]	10 to 100	< 10
COc1cc2c(cc1-c1cncc(C#N)c1)-c1c(c(C(=O)N(C)C(C)(C)C)nn1-c1cc(Cl)cc(Cl)c1)CO2 [Compound 8, N-tert-butyl-8-(5-cyanopyridin-3-yl)-1-(3,5-dichlorophenyl)-7-methoxy-N-methyl-1,4-dihydrochromeno[4,3-c]pyrazole-3-carboxamide]	101 to 500	< 10
COc1cc2c(cc1-c1cnn(CC(=O)O)c1)-c1c(c(C(=O)N(C)C(C)(C)C)nn1-c1cc(F)cc(F)c1)CO2 [Compound 87, 2-(4-(3-(tert-butyl(methyl)carbamoyl)-1-(3,5-difluorophenyl)-7-methoxy-1,4-dihydrochromeno[4,3-c]pyrazol-8-yl)-1H-pyrazol-1-yl)acetic acid]	101 to 500	10 to 100
COc1cc(OC)cc(-n2nc(C(=O)N3CC[S+]([O-])CC3(C)C)c3c2-c2cc(-c4ccn(C)n4)c(OC)cc2OC3)c1 (stereo not drawn) [Compound 39, (1-(3,5-dimethoxyphenyl)-7-methoxy-8-(1-methyl-1H-pyrazol-3-yl)-1,4-dihydrochromeno[4,3-c]pyrazol-3-yl)-(S-oxo-3,3-dimethylthiomorpholino)methanone]	101 to 500	10 to 100
COc1cc2c(cc1-c1ccn(C)n1)-c1c(c(C(=O)N3CCN(C#N)CC3(C)C)nn1-c1ccsc1)CO2 [Compound 184, 4-(7-methoxy-8-(1-methyl-1H-pyrazol-3-yl)-1-(thiophen-3-yl)-1,4-dihydrochromeno[4,3-c]pyrazole-3-carbonyl)-3,3-dimethylpiperazine-1-carbonitrile]	10 to 100	< 10
COc1cc2c(cc1-c1cc(Cl)cc(C(N)=O)c1)-c1c(c(C(=O)N(C)C(C)(C)C)nn1-c1cc(F)cc(F)c1)CO2 [Compound 165]	10 to 100	< 10
COc1cc2c(cc1-c1cc(C(N)=O)ccn1)-c1c(c(C(=O)N(C)C(C)(C)C#N)nn1-c1cc(Cl)cc(Cl)c1)CO2 [Compound 120, 8-(4-carbamoylpyridin-2-yl)-N-(2-cyanopropan-2-yl)-1-(3,5-dichlorophenyl)-7-methoxy-N-methyl-1,4-dihydrochromeno[4,3-c]pyrazole-3-carboxamide]	10 to 100	< 10
COc1cc2c(cc1-c1cncc(C#N)c1)-c1c(c(C(=O)N3CCOCC3(C)C)nn1-c1cc(Cl)cc(Cl)c1)CO2 [Compound 12, 5-(1-(3,5-dichlorophenyl)-3-(3,3-dimethylmorpholine-4-carbonyl)-7-methoxy-1,4-dihydrochromeno[4,3-c]pyrazol-8-yl)nicotinonitrile]	10 to 100	< 10
COc1cc2c(cc1C1C=NN=C1C)-c1c(c(C(=O)N(C)C(C)(C)C)nn1-c1cc(Cl)cc(Cl)c1)CO2 (stereo not drawn) [Compound 141]	10 to 100	< 10
COc1cc2c(cc1-c1cncc(CO)c1)-c1c(c(C(=O)N(C)C(C)(C)C)nn1-c1cc(Cl)cc(Cl)c1)CO2 [Compound 23, N-tert-butyl-1-(3,5-dichlorophenyl)-8-(5-(hydroxymethyl)pyridin-3-yl)-7-methoxy-N-methyl-1,4-dihydrochromeno[4,3-c]pyrazole-3-carboxamide]	10 to 100	< 10
COc1cc2c(cc1-c1cnn(CCO)c1)-c1c(c(C(=O)N(C)C(C)(C)C)nn1-c1cc(Cl)cc(Cl)c1)CO2 [Compound 1, N-tert-butyl-1-(3,5-dichlorophenyl)-8-(1-(2-hydroxyethyl)-1H-pyrazol-4-yl)-7-methoxy-N-methyl-1,4-dihydrochromeno[4,3-c]pyrazole-3-carboxamide]	10 to 100	< 10
COc1cc2c(cc1-c1cncc(S(N)(=O)=O)c1)-c1c(c(C(=O)N(C)C(C)(C)C)nn1-c1cc(Cl)cc(Cl)c1)CO2 [Compound 66, N-tert-butyl-1-(3,5-dichlorophenyl)-7-methoxy-N-methyl-8-(5-sulfamoylpyridin-3-yl)-1,4-dihydrochromeno[4,3-c]pyrazole-3-carboxamide]	10 to 100	< 10
COc1cc(F)cc(-n2nc(C(=O)N3CCOCC3(C)C)c3c2-c2cc(-c4cnn(CC(=O)O)c4)c(OC)cc2OC3)c1 [Compound 89, 2-(4-(3-(3,3-dimethylmorpholine-4-carbonyl)-1-(3-fluoro-5-methoxyphenyl)-7-methoxy-1,4-dihydrochromeno[4,3-c]pyrazol-8-yl)-1H-pyrazol-1-yl)acetic acid]	101 to 500	< 10
COc1cc2c(cc1-c1ccn(C)n1)-c1c(c(C(=O)N3CC[S+]([O-])CC3(C)C)nn1-c1cc(Cl)cc(Cl)c1)CO2 (stereo not drawn) [Compound 5, 4-{[1-(3,5-dichlorophenyl)-7-methoxy-8-(1-methyl-1H-pyrazol-3-yl)-1H,4H-chromeno[4,3-c]pyrazol-3-yl]carbonyl}-3,3-dimethyl-1$1^4,4-thiomorpholin-1-one]	101 to 500	10 to 100

More lines, now with the values ahead:

EC50 [1] [nM]	EC50 (FSHR) [nM]	SMILES
101 to 500	10 to 100	COc1cc2c(cc1-c1ccn(C)n1)-c1c(c(C(=O)N3CCOCC3(C)C)nn1-c1cc(C)cc(Cl)c1)CO2 [Compound 31, (1-(3-chloro-5-methylphenyl)-7-methoxy-8-(1-methyl-1H-pyrazol-3-yl)-1,4-dihydrochromeno[4,3-c]pyrazol-3-yl)(3,3-dimethylmorpholino)methanone]
101 to 500	< 10	COc1cc(OC)cc(-n2nc(C(=O)N(C)C(C)(C)C)c3c2-c2cc(-c4nn(C)cc4C#N)c(OC)cc2OC3)c1 [Compound 146, N-tert-butyl-8-(4-cyano-1-methyl-1H-pyrazol-3-yl)-1-(3,5-dimethoxyphenyl)-7-methoxy-N-methyl-1,4-dihydrochromeno[4,3-c]pyrazole-3-carboxamide]
101 to 500	< 10	COc1cc2c(cc1-c1cncc(C(N)=O)c1)-c1c(c(C(=O)N3CCC(O)CC3(C)C)nn1-c1cc(F)cc(F)c1)CO2 (stereo not drawn) [Compound 162]
10 to 100	< 10	COc1cc2c(cc1-c1ccccn1)-c1c(c(C(=O)N3CCC(O)CC3(C)C)nn1-c1cc(Cl)cc(Cl)c1)CO2 (stereo not drawn) [Compound 102, (1-(3,5-dichlorophenyl)-7-methoxy-8-(pyridin-2-yl)-1,4-dihydrochromeno[4,3-c]pyrazol-3-yl)(4-hydroxy-2,2-dimethylpiperidin-1-yl)methanone]
101 to 500	< 10	COc1cc2c(cc1-c1cc(=O)[nH]n1C)-c1c(c(C(=O)N(C)C(C)(C)C)nn1-c1ccsc1)CO2 [Compound 187]
10 to 100	< 10	COc1cc2c(cc1-c1cccnc1F)-c1c(c(C(=O)N(C)C(C)(C)C)nn1-c1ccsc1)CO2 [Compound 55, N-tert-butyl-8-(2-fluoropyridin-3-yl)-7-methoxy-N-methyl-1-(thiophen-3-yl)-1,4-dihydrochromeno[4,3-c]pyrazole-3-carboxamide]
10 to 100	< 10	COc1cc2c(cc1-c1cccc(O)c1)-c1c(c(C(=O)N(C)C(C)(C)C)nn1-c1cc(Cl)cc(Cl)c1)CO2 [Compound 22, N-tert-butyl-1-(3,5-dichlorophenyl)-8-(3-hydroxyphenyl)-7-methoxy-N-methyl-1,4-dihydrochromeno[4,3-c]pyrazole-3-carboxamide]
